Experimental data as given in patent publication US8071627B2, “2-pyridinylethylcarboxamide derivatives and their use as fungicides” (Bayer SAS, priority 2003, dated 2011).

Tests used:
[1] = system: Botrytis cinerea; assay: In vivo test on Botrytis cinerea (cucumber grey mould), cucumber plants, preventive spray; settings: 330 ppm; comparison compounds of WO 01/11965
Method: (§1) The active ingredient tested is prepared by potter homogenisation in a concentrated suspension type formulation at 100 g/l. This suspension is then diluted with water to obtain the desired active material concentration.
(§2) Cucumber plants (Marketer variety) in starter cups, sown on a 50/50 peat soil-pozzolana substrate and grown at 18-20° C., are treated at the cotyledon Z11 stage by spraying with the aqueous suspension described above. Plants, used as controls, are treated with an aqueous solution not containing the active material.
After 24 hours, the plants are contaminated by depositing drops of an aqueous suspension of Botrytis cinerea spores (150,000 spores per ml) on upper surface of the leaves. The spores are collected from a 15-day-old culture and are suspended in a nutrient solution-composed of: • 20 g/L of gelatin • 50 g/L of cane sugar • 2 g/L of NH4NO3 • 1 g/L of KH2PO4
The contaminated cucumber plants are settled for 5/7 days in a climatic room at 15-11° C. (day/night) and at 80% relative humidity.
Grading is carried out 5/7 days after the contamination, in comparison with the control plants.

[2] = system: Peronospora brassicae; assay: Test on Peronospora brassicae, cabbage plants, preventive spray; format: in vivo; settings: 330 ppm; cabbage plants (Eminence variety); sprayed 24 hours before contamination; grading 5 days after contamination vs control plants
Method: as §1
as §2, with “Cabbage” for “Cucumber”, “(Eminence” for “(Marketer”, “cotyledon” for “cotyledon Z11”
After 24 hours, the plants are contaminated by spraying them with an aqueous suspension of Peronospora brassicae spores (50,000 spores per ml). The spores are collected from infected plant
The contaminated cabbage plants are incubated for 5 days at 20° C., under a humid atmosphere.
Grading is carried out 5 days after the contamination, in comparison with the control plants.

[3] = system: Peronospora parasitica; assay: Efficacy against Peronospora parasitica (comparison compound); format: in vivo; settings: 330 ppm; comparison compound of WO 01/11965
[4] = system: Alternaria brassicae; assay: In vivo test on Alternaria brassicae (leaf spot of crucifers), radish plants, preventive spray; settings: 330 ppm; comparison compounds of WO 01/11965
Method: as §1
Radish plants (Pernot variety) in starter cups, sown on a 50/50 peat soil-pozzolana substrate and grown at 18-20° C., are treated at the cotyledon stage by spraying with the aqueous suspension described above.
Plants, used as controls, are treated with an aqueous solution not containing the active material.
After 24 hours, the plants are contaminated by spraying them with an aqueous suspension of Alternaria brassicae spores (40,000 spores per cm^3). The spores are collected from a 12-13-day-old culture.
The contaminated radish plants are incubated for 6-7 days at about 18° C., under a humid atmosphere.
Grading is carried out 6 to 7 days after the contamination, in comparison with the control plants.

| SMILES | effectiveness on Botrytis cinerea (in words) [1] | protection (good (at least 50%) to total) [2] | efficacy against Peronospora parasitica (in words) [3] | effectiveness on Alternaria brassicae (in words) [4] |
| --- | --- | --- | --- | --- |
| CNC(=O)C(Cc1ncc(C(F)(F)F)cc1Cl)NC(=O)c1ccc(OC)cc1 (stereo not shown) [compound 315, N-{1-methylcarbamoyl-2-[3-chloro-5-(trifluoromethyl)-2-pyridinyl]ethyl}-4-methoxybenzamide] | zero effectiveness | – | – | – |
| CC1=C(C(=O)NCC(NC(=O)c2c(Cl)cccc2Cl)c2ncc(C(F)(F)F)cc2Cl)SCCO1 (stereo not shown) [Compound 46] | – | at least 50% | – | – |
| CCNC(=O)C(Cc1ncc(C(F)(F)F)cc1Cl)NC(=O)c1ccccc1 (stereo not shown) [compound 304, N-{1-ethylcarbamoyl-2-[3-chloro-5-(trifluoromethyl)-2-pyridinyl]-ethyl}-benzamide] | zero effectiveness | – | – | – |
| CCNC(=O)C(Cc1ncc(C(F)(F)F)cc1Cl)NC(=O)c1ccccc1Br (stereo not shown) [compound 310, N-{1-ethylcarbamoyl-2-[3-chloro-5-(trifluoromethyl)-2-pyridinyl]ethyl}-2-bromobenzamide] | zero effectiveness | – | – | – |
| O=C(Cc1cccs1)NCc1ncc(C(F)(F)F)cc1Cl [compound 101, N-{[3-chloro-5-(trifluoromethyl)-2-pyridinyl]methyl}-5-thienylacetamide] | no efficacy | – | no efficacy | poor efficacy |
| CNC(=O)C(Cc1ncc(C(F)(F)F)cc1Cl)NC(=O)c1ccccc1 (stereo not shown) [compound 314, N-{1-methylcarbamoyl-2-[3-chloro-5-(trifluoromethyl)-2-pyridinyl]ethyl}-benzamide] | zero effectiveness | – | – | – |
| CCNC(=O)C(Cc1ncc(C(F)(F)F)cc1Cl)NC(=O)c1cccc([N+](=O)[O-])c1 (stereo not shown) [compound 307, N-{1-ethylcarbamoyl-2-[3-chloro-5-(trifluoromethyl)-2-pyridinyl]ethyl}-3-nitrobenzamide] | zero effectiveness | – | – | poor effectiveness |
| CNC(=O)C(Cc1ncc(C(F)(F)F)cc1Cl)NC(=O)c1ccc(-c2ccccc2)cc1 (stereo not shown) [compound 316, N-{1-methylcarbamoyl-2-[3-chloro-5-(trifluoromethyl)-2-pyridinyl]-ethyl}-4-phenylbenzamide] | zero effectiveness | – | – | poor effectiveness |
| CCNC(=O)C(Cc1ncc(C(F)(F)F)cc1Cl)NC(=O)c1ccc(Cl)cc1 (stereo not shown) [compound 306, N-{1-ethylcarbamoyl-2-[3-chloro-5-(trifluoromethyl)-2-pyridinyl]ethyl}-4-chlorobenzamide] | zero effectiveness | – | – | – |
